Entries after “also recorded” stand apart in the source; their conditions may differ. Where two headings read alike, the source gives them in different places.
Assays:
KLK7 [1] = molecular target: T1, KLK7 (Homo sapiens, UniProt P49862); assay: gel zymography (casein); format: biochemical
[2] = tested on: skin of wildtype (wt) or Klk5^-/- mice; assay: erythema/eschar and oedema scoring after application on the skin; format: in vivo; set-up: key to Erythema and Eschar Score after (hrs) 4 / Erythema and Eschar Score after (hrs) 24 / Erythema and Eschar Score after (hrs) 48 / Erythema and Eschar Score after (hrs) 72: 0: No erythema; 1: Very slight erythema (barely perceptible); 2: Well defined erythema; 3: Moderate to severe erythema; 4: Severe erythema (beef redness); key to Oedema Score after (hrs) 4 / Oedema Score after (hrs) 24 / Oedema Score after (hrs) 48 / Oedema Score after (hrs) 72: 0: No oedema; 1: Very slight oedema (barely perceptible); 2: Slight oedema (edges of area well defined by definite raising); 3: Moderate oedema (raised approximately 1mm); 4: Severe erythema (raised more than 1mm and extending beyond area of exposure); conditions: for erythema or oedema in vivo: 1 mM on the skin of wildtype (wt) or Klk5^-/- mice; for erythema or oedema in vivo / toxicity: result in words; for Erythema and Eschar Score after (hrs) 4 / Oedema Score after (hrs) 4 / Erythema and Eschar Score after (hrs) 24 / Oedema Score after (hrs) 24 / Erythema and Eschar Score after (hrs) 48 / Oedema Score after (hrs) 48 / Erythema and Eschar Score after (hrs) 72 / Oedema Score after (hrs) 72: 1 mM on the skin; for Erythema and Eschar Score after (hrs) 4 / Oedema Score after (hrs) 4: 4 hrs; for Erythema and Eschar Score after (hrs) 24 / Oedema Score after (hrs) 24: 24 hrs; for Erythema and Eschar Score after (hrs) 48 / Oedema Score after (hrs) 48: 48 hrs; for Erythema and Eschar Score after (hrs) 72 / Oedema Score after (hrs) 72: 72 hrs; for toxicity: wild type and Klk5^-/- mice
Text: Scoring was based on the following criteria (Table 2 and 3): Table 2 - Scoring criteria for erythema and eschar formation

trypsin [3] = assay: enzyme kinetic study, cleavage of fluorescent substrate Z-Phe-Arg-AMC; format: biochemical
Method: (§1) The enzyme kinetic study testing the ability of Boc-FFP to inhibit trypsin or KLK6 was performed with cleavage of fluorescent substrate Z-Phe-Arg-AMC. The enzymes were used at 12 nM and the substrate at 50 µM. Boc-FFP was used at 1.2 µM (100:1 molar ration inhibitor: enzyme). Aprotinin was used a positive control at 500 nM final concentration. Fluorescence was measured (λexc=380 nm, λem=440 nm) for 3 min and the results were expressed as ΔF/Δt.

KLK6 [4] = molecular target: T2, KLK6 (Homo sapiens, UniProt Q92876); assay: as above; format: biochemical
Method: as §1

KLK13 = molecular target: T3, KLK13 (Homo sapiens, UniProt Q9UKR3); assay: gel zymography, specificity; format: biochemical; conditions: 2 hours at room temperature
T3 sequence (Q9UKR3 17-277): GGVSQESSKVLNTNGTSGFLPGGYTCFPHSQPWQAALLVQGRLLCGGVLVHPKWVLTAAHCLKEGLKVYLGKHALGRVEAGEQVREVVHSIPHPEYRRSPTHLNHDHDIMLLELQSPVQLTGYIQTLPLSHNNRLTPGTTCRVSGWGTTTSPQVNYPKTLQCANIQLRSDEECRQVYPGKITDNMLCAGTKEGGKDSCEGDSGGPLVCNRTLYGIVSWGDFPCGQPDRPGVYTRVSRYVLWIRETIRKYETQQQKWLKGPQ
Method: (§2) For gel zymography, the compounds were reacted with the enzymes at room temperature for 2 hours, then mixed with zymogram loading buffer without mercaptoethanol, incubated at 37°C for 15 min and resolved on 12% SDS-PAGE containing 0.1% casein or gelatin substrates. Gels were washed twice with 50 mM Tris-HCI pH 7.5, 5 mM CaCl2, 2.5% Triton X-100 for 15 min, then 15 min with 50 mM Tris-HCI, pH 7.5, 5 mM CaCl2, 0.1% Triton X-100, and finally incubated in the latter buffer for 24 hours and stained with Coomassie G-250. Proteolytic bands appear white against a blue background.

elastase (ELA) = assay: gel zymography, specificity; format: biochemical; conditions: 2 hours at room temperature
Method: as §2

trypsin [5] = assay: gel zymography, specificity; format: biochemical; conditions: 2 hours at room temperature
Method: as §2

KLK6 [6] = molecular target: T2, KLK6; assay: gel zymography, specificity; format: biochemical; conditions: 2 hours at room temperature
Method: as §2

KLK7 [7] = molecular target: T1, KLK7; assay: KLK7 inhibition study for IC50 determination, BODIPY-FL casein substrate; format: biochemical; conditions: KLK7 6 nM, inhibitor 50 nM to 10 µM, 16 hours at room temperature, BODIPY-FL casein 30 µg/ml
Method: For IC50 determination, KLK7 inhibition study was carried out in assay buffer (100 mM Tris-HCI, pH 7.8, 100 mM NaCl, 10 mM CaCl2, 0.005% Triton X-100). KLK7 (6 nM) was incubated with the inhibitor (50 nM to 10 µM) for 16 hours at room temperature in the assay buffer. Then, the BODIPY-FL casein substrate (Molecular Probes) was added at 30 µg/ml and fluorescence was measured (λexc=485 nm, λem=530 nm). After 3 hours the fluorescence was measured again. Data were inserted into the online available program Very Simple IC50 Tool (http://www.ic50.tk/) for fitting and calculation of the IC50.

Spink5^-/^-Klk5^-/- mice = assay: application on the skin of Spink5^-/^-Klk5^-/- mice (desquamation, inflammatory cytokines); format: in vivo
KLK7 [8] = molecular target: T1, KLK7; format: binding
trypsin [9] = assay: Western-like blotting with activity-based probe; format: binding; conditions: enzyme reacted with probe 2 or 16 hours
Method: (§3) For Western-like blotting, the enzymes were reacted with Biotin-FFP for 2 or 16 hours, resolved on SDS-PAGE, then, the proteins were transferred on PVDF membranes. Membranes were blocked with 3% BSA in PBS for 40 min at room temperature, washed twice with PBS and incubated for 1 hour at room temperature with streptavidin-HRP polymer (1:2,000) and subsequently washed four times with PBS containing 0.05% Tween-20. Specific bands were identified with ECL.

KLK6 [10] = molecular target: T2, KLK6; assay: Western-like blotting with activity-based probe; format: binding; conditions: enzyme reacted with probe 2 or 16 hours
Method: as §3

[11] = gel zymography, casein, compound reacted with enzyme 2 hours at room temperature
[12] = enzyme kinetic study, result in words

T1 sequence (P49862 30-253): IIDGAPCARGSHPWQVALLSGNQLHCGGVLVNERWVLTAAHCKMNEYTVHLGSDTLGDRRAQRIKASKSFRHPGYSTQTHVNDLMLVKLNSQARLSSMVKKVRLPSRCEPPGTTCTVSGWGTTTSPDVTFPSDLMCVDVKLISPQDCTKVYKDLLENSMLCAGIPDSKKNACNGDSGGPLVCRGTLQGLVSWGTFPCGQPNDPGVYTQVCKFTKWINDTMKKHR

| SMILES | inhibition of KLK7 activity (KLK7 [1]; [11]) | erythema or oedema in vivo [2] | Erythema and Eschar Score after (hrs) 4 ([2]; Klk5^-/- mice) | Oedema Score after (hrs) 4 ([2]; Klk5^-/- mice) | Erythema and Eschar Score after (hrs) 24 ([2]; Klk5^-/- mice) | Oedema Score after (hrs) 24 ([2]; Klk5^-/- mice) | Erythema and Eschar Score after (hrs) 48 ([2]; Klk5^-/- mice) | Oedema Score after (hrs) 48 ([2]; Klk5^-/- mice) | Erythema and Eschar Score after (hrs) 72 ([2]; Klk5^-/- mice) | Oedema Score after (hrs) 72 ([2]; Klk5^-/- mice) | toxicity [2] | Erythema and Eschar Score after (hrs) 4 ([2]; wt mice) | Oedema Score after (hrs) 4 ([2]; wt mice) | Erythema and Eschar Score after (hrs) 24 ([2]; wt mice) | Oedema Score after (hrs) 24 ([2]; wt mice) | Erythema and Eschar Score after (hrs) 48 ([2]; wt mice) | Oedema Score after (hrs) 48 ([2]; wt mice) | Erythema and Eschar Score after (hrs) 72 ([2]; wt mice) | Oedema Score after (hrs) 72 ([2]; wt mice) | other results |
| --- | --- | --- | --- | --- | --- | --- | --- | --- | --- | --- | --- | --- | --- | --- | --- | --- | --- | --- | --- | --- |
| CC(C)(C)OC(=O)NC(Cc1ccccc1)C(=O)NC(c1ccccc1)P(=O)(Oc1ccccc1)Oc1ccccc1 (stereo not drawn) [Boc-FbFP] | only Boc-FFP can inhibit the activity of KLK7 | – | – | – | – | – | – | – | – | – | – | – | – | – | – | – | – | – | – | – |
| CC(C)(C)OC(=O)NC(Cc1ccccc1)C(=O)NC(Cc1ccccc1)P(=O)(Oc1ccccc1)Oc1ccccc1 (stereo not drawn) [Boc-FFP, tert-butvl 1-(1-(diphenoxvphosphorvl)-2-phenylethylamino)-1-oxo-3-phenylpropan-2-ylcarbamate] | – | did not exhibit either erythema or oedema | 0 | 0 | 0 | 0 | 0 | 0 | 0 | 0 | lack toxicity | 0 | 0 | 0 | 0 | 0 | 0 | 0 | 0 | inhibition of KLK7 activity (KLK7 [1]): only Boc-FFP could effectively inhibit KLK7 activity; also recorded: can also inhibit the KLK7 activity; also recorded: can only inhibit the activity of KLK7; also recorded: Only KLK7 was inhibited; inhibition of the activity of trypsin (trypsin [3]; [12]): did not inhibit; ΔF/Δt (trypsin [3]; trypsin 12 nM, Z-Phe-Arg-AMC 50 µM, change in fluorescence over 3 min, Boc-FFP 1.2 µM pre-incubated 2 hours, Aprotinin 500 nM, trypsin alone 33.49): 33.26; ΔF/Δt (KLK6 [4]; KLK6 12 nM, Z-Phe-Arg-AMC 50 µM, change in fluorescence over 3 min, Boc-FFP 1.2 µM pre-incubated 2 hours, Aprotinin 500 nM, KLK6 alone 35.54): 37.96; inhibition of the activity of KLK6 (KLK6 [4]; [12]): did not inhibit; inhibition of KLK13 (KLK13): Only KLK7 was inhibited; inhibition of elastase (ELA) (elastase (ELA)): Only KLK7 was inhibited; inhibition of trypsin (trypsin [5]): Only KLK7 was inhibited; inhibition of KLK6 (KLK6 [6]): Only KLK7 was inhibited; IC50 (KLK7 [7]): 1910 nM; reduction of macroscopic desquamation (Spink5^-/^-Klk5^-/- mice; application on the skin of Spink5^-/^-Klk5^-/- mice, versus solvent control side): approximately 50%; expression of inflammatory cytokines (Spink5^-/^-Klk5^-/- mice; skin of Spink5^-/^-Klk5^-/- mice, RT-qPCR, versus solvent treatment): suppressed the expression of inflammatory cytokines |
| CC(C)(C)OC(=O)NC(Cc1ccccc1)C(=O)NC(CCc1ccccc1)P(=O)(Oc1ccccc1)Oc1ccccc1 (stereo not drawn) [Boc-FcFP] | only Boc-FFP can inhibit the activity of KLK7 | – | – | – | – | – | – | – | – | – | – | – | – | – | – | – | – | – | – | – |
| O=C(CCCCCNC(=O)CCCC[C@H]1SCC2NC(=O)NC21)NCCCCCC(=O)NC(Cc1ccccc1)C(=O)NC(Cc1ccccc1)P(=O)(Oc1ccccc1)Oc1ccccc1 (stereo partly drawn) [Biotin-FFP, diphenyl 1-(2-(6-(6-(5-((4R)-2-oxo-hexahydro-1H-thieno[3,4-d]imidazole-4-yl)pentanamido)hexanamido)hexanamido)-3-phenylpropanamido)-2-phenylethylphosphonate] | – | did not exhibit either erythema or oedema | 0 | 0 | 0 | 0 | 0 | 0 | 0 | 0 | lack toxicity | 0 | 0 | 0 | 0 | 0 | 0 | 0 | 0 | detection of active KLK7 (KLK7 [8]): only detected the active KLK7; labeling of KLK7, signal (KLK7 [8]): higher signal compared to Biotin-FbFP; also recorded: significant signal enhancement; detection of trypsin (trypsin [9]): not the trypsin or the KLK6; also recorded: does not react with KLK6 and trypsin; detection of KLK6 (KLK6 [10]): does not react with KLK6 and trypsin |

Reference: patent EP3653215A1, “THERANOSTIC INHIBITORS AND ACTIVITY-BASED PROBES FOR THE KLK7 PROTEASE” (University of Patras, priority 2018, dated 2020)
